Columns and labels:
[1] = Plasma protein binding by equilibrium dialysis, rat plasma; assay type: in vitro ADME; settings: pH 7.4, 37° C., read-out: plasma protein binding (% Bound)
Procedure: (§1) Membranes from Harvard/Amika with a molecular weight cutoff of 5,000 were rinsed with dH2O then placed in pH 7.4 PBS supplied by Gibco. The membranes were allowed to soak for 1 hour. A stock of the test article was pooled with Warfarin, Atropine at 2 mM in DMSO. The test article was then dosed into human plasma in sodium citrate, Rat Plasma, and Mouse Plasma to a final 10 μM concentration (0.5% DMSO v/v).
(§2) The pre-soaked membranes were then placed into dialysis chambers. 500 μL of PBS was added to one side of the chamber, and 500 μL of the Matrix containing the test article was added to the other side of the chamber. The chambers were then placed into an enclosed, heated rocker, which was pre-warmed to 37° C. and allowed to reach equilibrium for at least 22 hours. After 22 hours both sides were sampled. 100 μL of the donor side was added to 500 μL of PBS. 100 μL of the PBS side was added to 20 μL of fresh matrix. Samples then were crashed with 1:1 Acetonitrile and centrifuged at 10,000 RPM for 10 minutes. […]
(§3) Standards were prepared in a 1:5 plasma:PBS mixture at 5, 1.5, 0.5, 0.15, 0.05, 0.015 and 0.005 μM concentrations. […] Protein binding values were calculated as follows: % Bound=[(Concentration in Donor−Concentration in Receiver)/(Concentration in Donor)]×100. % Recovery=[(Concentration in donor+Concentration in Receiver)]/(Concentration in Normal Initial)]×100

[2] = Plasma protein binding by equilibrium dialysis, human plasma; assay type: in vitro ADME; settings: pH 7.4, 37° C., read-out: plasma protein binding (% Bound)
Procedure: as §1, §2, §3

Sprague-Dawley male rats = assay: Thermal hyperalgesia (carrageenan, paw withdrawal latency); assay type: in vivo; settings: rat, 30 mg/kg, two hours after administration
Procedure: Sprague-Dawley male rats obtained from Charles River, San Diego, Calif. were purchased at 150-175 g, and held for at least one week before testing. Pain was induced by injecting 100 μl of 2% carrageenan in 0.9% saline sub-Q into the right ventral hindpaw while the animals were under isofluorane anesthesia. Animals were then dosed one hour after with a concentration of 30 mg/kg of Compound 1. Two hours later, after acclimatizing in testing chambers for 20-30 minutes, animals were tested on both hindpaws for latency of paw withdrawal using a thermal testing apparatus. 2-3 trials were conducted with 10 minutes between trials. […] The figure depicts the time in seconds until animals withdraw from thermal stimulation at baseline and two hours after administration of delivery vehicle, control compound, and the dose of 30 mg/kg of Compound 1.

- fraction unbound at 22 h, 10 μM [1]: < 0.001
- fraction unbound at 22 h, 10 μM [2]: < 0.001
SMILES: FC(F)(F)c1ccc(Nc2ncnc3c2CCN(c2ncccc2Cl)C3)cc1 [Compound 1]
- latency of paw withdrawal (reversal of thermal hyperalgesia) (Sprague-Dawley male rats): significantly increased latency of paw withdrawal

Reference: patent US7312330B2, “Bicycloheteroarylamine compounds as ion channel ligands and uses thereof” (Renovis, Inc., priority 2003, dated 2007)
